Results taken from patent US11001872B2, “Designing customized protein-specific buffer system” (priority 2015, dated 2021).

How the values were obtained:
protein sample [1] = assay: Protein quality control screen: melting point temperature vs pH and NaCl concentration; type: physicochemical
Description: In one embodiment, the present invention contemplates a method comprising a protein quality control screen. Although it is not necessary to understand the mechanism of an invention, it is believed that a quality control screen may be used to analyze: i) comparison of protein state prior to storage and post storage; ii) protein synthesis/purification lot-to-lot comparison; and iii) protein synthesis/purification batch testing. In one embodiment, the protein quality control screen measures protein melting point temperature while varying both pH concentration and ionic strength (e.g., for example, using a sodium chloride dose response curve). See, Table 1.
In one embodiment, a three dimensional map of the protein melting point temperatures is created by plotting the melting point determinations relative to pH and ionic strength. See. FIG. 15.

protein sample [2] = assay: Protein stability screen: protein melting point temperature in MES/BTP buffer mixture; type: physicochemical; conditions: Hoefmeister Series screen; higher Tm
Description: In one embodiment, the present invention contemplates a method comprising a physiologic buffer mixture having a temperature-stable pKa to identify test compounds that increase stability of a sample protein by performing a protein melting point temperature screen. […] Although it is not necessary to understand the mechanism of an invention it is believed that a protein stability screen acts to define the bulk properties of a solution system (i.e. impact of pH, ionic strength, buffer etc.) and not just one specific component like most of the other screening conditions. The buffer system also acts as an internal control that simultaneously compares new and old conditions under identical conditions. Although commonly used previously, a urea stability test provides validation and verification of all testing parameters by comparative analysis with historical literature. DMSO screening allows for the nomination of conditions where protein compounds are usually insoluble (e.g., for example, drug binding studies) to identify the proper use of DMSO to solubilize these compounds without effecting the performance of the intended assay.
See, FIG. 1. […] See, FIG. 3. […] See, FIG. 4. […] See, FIG. 5. […] See, FIG. 6.
A metal ion screen was performed that compared the relative effects of five (5) different metal chloride ions, each at two different concentrations. See, FIG. 7. […] See, FIG. 8.
In one embodiment, the kit instructions comprise the following steps: • i) pre-chill the RT-PCR plate at 4° C. for 15-30 minutes prior to the addition of reagents and/or protein sample to each of the wells. • ii) The dye vial and kit plates should be stored at −20° C. and away from light until the time of use. • iii) Add 5 μl of dye to 500 μl of protein sample. The dye to protein ratio can be modified to any particular protein. For example, smaller proteins or proteins with a small hydrophobic core may require an increased dye concentration. • iv) Transfer 5 μl of each solution from the well plate to a corresponding well of the RT-PCR plate. • v) Add 5 μl of the protein/dye mixture to each well of the RT-PCR plate (>0.5 mg/ml). • vi) Mix the solutions by pipetting up and down (˜5 times). • a) gently placing all solutions at the bottom of the avoids subsequent plate centrifugation. • vii) Seal the RT-PCR plate. • viii) Immediately load the TR-PCR plate into the instrument and begin the programmed heating schedule (approximate timeframe=62 minutes), for example: • a) Heat to 20 C • b) Ramp to 90 C in 0.5 C increments. • c) Ramp to 4 C with a two minute schedule. • ix) Upload stored data file to a designated website (e.g., for example, caymanchem.com/deltatm) and follow the instructions.

Compound `[Cl-].[Na+]` [sodium chloride] has a protein melting point temperature (protein sample [1]; pH 5, NaCl Concentration 0.125) of 73 °C, a protein melting point temperature (protein sample [1]; pH 5, NaCl Concentration 0.25) of 73.5 °C and a protein melting point temperature (protein sample [1]; pH 5, NaCl Concentration 0.5) of 74.5 °C. The protein melting point temperature (protein sample [1]; pH 5, NaCl Concentration 0.75) was 76 °C, the protein melting point temperature (protein sample [1]; pH 5, NaCl Concentration 1) was 76.5 °C and the protein melting point temperature (protein sample [1]; pH 5, NaCl Concentration 1.25) was 77 °C. For the same compound, the protein melting point temperature (protein sample [1]; pH 5, NaCl Concentration 1.5) was 77 °C, the protein melting point temperature (protein sample [1]; pH 5, NaCl Concentration 1.75) was 76.5 °C and the protein melting point temperature (protein sample [1]; pH 5, NaCl Concentration 2) was 77 °C. For the same compound, the protein melting point temperature (protein sample [1]; pH 5.5, NaCl Concentration 0.125) was 75 °C, the protein melting point temperature (protein sample [1]; pH 5.5, NaCl Concentration 0.25) was 75 °C and the protein melting point temperature (protein sample [1]; pH 5.5, NaCl Concentration 0.5) was 75 °C. For the same compound, the protein melting point temperature (protein sample [1]; pH 5.5, NaCl Concentration 0.75) was 76 °C, the protein melting point temperature (protein sample [1]; pH 5.5, NaCl Concentration 1) was 76.5 °C and the protein melting point temperature (protein sample [1]; pH 5.5, NaCl Concentration 1.25) was 77 °C. For the same compound, the protein melting point temperature (protein sample [1]; pH 5.5, NaCl Concentration 1.5) was 77 °C, the protein melting point temperature (protein sample [1]; pH 5.5, NaCl Concentration 1.75) was 77.5 °C and the protein melting point temperature (protein sample [1]; pH 5.5, NaCl Concentration 2) was 77.5 °C. For the same compound, the protein melting point temperature (protein sample [1]; pH 6, NaCl Concentration 0.125) was 75 °C, the protein melting point temperature (protein sample [1]; pH 6, NaCl Concentration 0.25) was 76 °C and the protein melting point temperature (protein sample [1]; pH 6, NaCl Concentration 0.5) was 76 °C. The protein melting point temperature (protein sample [1]; pH 6, NaCl Concentration 0.75) was 76.5 °C, the protein melting point temperature (protein sample [1]; pH 6, NaCl Concentration 1) was 77 °C and the protein melting point temperature (protein sample [1]; pH 6, NaCl Concentration 1.25) was 77 °C. The protein melting point temperature (protein sample [1]; pH 6, NaCl Concentration 1.5) was 77 °C, the protein melting point temperature (protein sample [1]; pH 6, NaCl Concentration 1.75) was 78 °C and the protein melting point temperature (protein sample [1]; pH 6, NaCl Concentration 2) was 77.5 °C. For the same compound, the protein melting point temperature (protein sample [1]; pH 6.5, NaCl Concentration 0.125) was 76 °C, the protein melting point temperature (protein sample [1]; pH 6.5, NaCl Concentration 0.25) was 76.5 °C and the protein melting point temperature (protein sample [1]; pH 6.5, NaCl Concentration 0.5) was 76.5 °C. The protein melting point temperature (protein sample [1]; pH 6.5, NaCl Concentration 0.75) was 77 °C, the protein melting point temperature (protein sample [1]; pH 6.5, NaCl Concentration 1) was 77.5 °C and the protein melting point temperature (protein sample [1]; pH 6.5, NaCl Concentration 1.25) was 77.5 °C. The protein melting point temperature (protein sample [1]; pH 6.5, NaCl Concentration 1.5) was 77.5 °C, the protein melting point temperature (protein sample [1]; pH 6.5, NaCl Concentration 1.75) was 78 °C and the protein melting point temperature (protein sample [1]; pH 6.5, NaCl Concentration 2) was 78 °C. It also gave a protein melting point temperature (protein sample [1]; pH 7, NaCl Concentration 0.125) of 76 °C, a protein melting point temperature (protein sample [1]; pH 7, NaCl Concentration 0.25) of 76.5 °C and a protein melting point temperature (protein sample [1]; pH 7, NaCl Concentration 0.5) of 77 °C. It also gave a protein melting point temperature (protein sample [1]; pH 7, NaCl Concentration 0.75) of 77.5 °C, a protein melting point temperature (protein sample [1]; pH 7, NaCl Concentration 1) of 77.5 °C and a protein melting point temperature (protein sample [1]; pH 7, NaCl Concentration 1.25) of 77.5 °C. It also gave a protein melting point temperature (protein sample [1]; pH 7, NaCl Concentration 1.5) of 77.5 °C, a protein melting point temperature (protein sample [1]; pH 7, NaCl Concentration 1.75) of 77 °C and a protein melting point temperature (protein sample [1]; pH 7, NaCl Concentration 2) of 77 °C. It also gave a protein melting point temperature (protein sample [1]; pH 7.5, NaCl Concentration 0.125) of 76.5 °C, a protein melting point temperature (protein sample [1]; pH 7.5, NaCl Concentration 0.25) of 77.5 °C and a protein melting point temperature (protein sample [1]; pH 7.5, NaCl Concentration 0.5) of 77.5 °C. It also gave a protein melting point temperature (protein sample [1]; pH 7.5, NaCl Concentration 0.75) of 78 °C, a protein melting point temperature (protein sample [1]; pH 7.5, NaCl Concentration 1) of 77.5 °C and a protein melting point temperature (protein sample [1]; pH 7.5, NaCl Concentration 1.25) of 76.5 °C. For the same compound, the protein melting point temperature (protein sample [1]; pH 7.5, NaCl Concentration 1.5) was 76 °C, the protein melting point temperature (protein sample [1]; pH 7.5, NaCl Concentration 1.75) was 76 °C and the protein melting point temperature (protein sample [1]; pH 7.5, NaCl Concentration 2) was 75 °C. It also gave a protein melting point temperature (protein sample [1]; pH 8, NaCl Concentration 0.125) of 75.5 °C, a protein melting point temperature (protein sample [1]; pH 8, NaCl Concentration 0.25) of 77.5 °C and a protein melting point temperature (protein sample [1]; pH 8, NaCl Concentration 0.5) of 76.5 °C. For the same compound, the protein melting point temperature (protein sample [1]; pH 8, NaCl Concentration 0.75) was 77.5 °C, the protein melting point temperature (protein sample [1]; pH 8, NaCl Concentration 1) was 76.5 °C and the protein melting point temperature (protein sample [1]; pH 8, NaCl Concentration 1.25) was 76.5 °C. For the same compound, the protein melting point temperature (protein sample [1]; pH 8, NaCl Concentration 1.5) was 76 °C, the protein melting point temperature (protein sample [1]; pH 8, NaCl Concentration 1.75) was 75 °C and the protein melting point temperature (protein sample [1]; pH 8, NaCl Concentration 2) was 74.5 °C. The protein melting point temperature (protein sample [1]; pH 8.5, NaCl Concentration 0.125) was 75 °C, the protein melting point temperature (protein sample [1]; pH 8.5, NaCl Concentration 0.25) was 75.5 °C and the protein melting point temperature (protein sample [1]; pH 8.5, NaCl Concentration 0.5) was 76 °C. The protein melting point temperature (protein sample [1]; pH 8.5, NaCl Concentration 0.75) was 77 °C, the protein melting point temperature (protein sample [1]; pH 8.5, NaCl Concentration 1) was 76 °C and the protein melting point temperature (protein sample [1]; pH 8.5, NaCl Concentration 1.25) was 75 °C. For the same compound, the protein melting point temperature (protein sample [1]; pH 8.5, NaCl Concentration 1.5) was 75 °C, the protein melting point temperature (protein sample [1]; pH 8.5, NaCl Concentration 1.75) was 75 °C and the protein melting point temperature (protein sample [1]; pH 8.5, NaCl Concentration 2) was 74.5 °C. The protein melting point temperature (protein sample [1]; pH 9, NaCl Concentration 0.125) was 75 °C, the protein melting point temperature (protein sample [1]; pH 9, NaCl Concentration 0.25) was 75 °C and the protein melting point temperature (protein sample [1]; pH 9, NaCl Concentration 0.5) was 75.5 °C. For the same compound, the protein melting point temperature (protein sample [1]; pH 9, NaCl Concentration 0.75) was 75 °C, the protein melting point temperature (protein sample [1]; pH 9, NaCl Concentration 1) was 75 °C and the protein melting point temperature (protein sample [1]; pH 9, NaCl Concentration 1.25) was 75 °C. It also gave a protein melting point temperature (protein sample [1]; pH 9, NaCl Concentration 1.5) of 75 °C, a protein melting point temperature (protein sample [1]; pH 9, NaCl Concentration 1.75) of 74.5 °C and a protein melting point temperature (protein sample [1]; pH 9, NaCl Concentration 2) of 74 °C. For the same compound, the “effect on protein stability (Tm)” value (protein sample [2]) was “improved the stability of the protein”.
